Results published in the supplement of paper PMC4862054.
Values belong to the compound of their own block, whether it stands above or below them.

Tests used:
Settings in all cases: 72 h
[1] = tested on: CAL-51
Method in brief: (§1)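 Breast cancer cell lines (20 µl suspension) were seeded into 384-well plates holding compound at 5 concentrations in 10-fold steps over a compound-specific 10,000-fold range, then incubated 72 h. Cell death was read first by CellTox Green fluorescence (485/520 nm), then viability by CellTiter-Glo luminescence after 10 min at room temperature. Each plate was normalised to 0.1 % DMSO and a positive kill control. EC50 was fitted from the dose-response curves and censored at the top concentration.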

[2] = tested on: CAL-120
Experimental: (§2)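 Drug sensitivity and resistance testing (DSRT) of breast cancer cell lines in 384-well plates, 5 concentrations in 10-fold dilutions over a compound-specific 10,000-fold range. After 72 h, cytotoxicity was read by CellTox Green fluorescence and viability by CellTiter-Glo luminescence (multiplexed), normalised to DMSO and benzethonium chloride controls. EC50 is the inflection point of the fitted dose-response curve (bottom asymptote free, so it can be relative for partial curves) and is censored at the highest tested concentration. Rows with DSS 0 (no meaningful response) were excluded.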

[3] = tested on: MDA-MB-468
Experimental: as §2

[4] = tested on: CAL-51; remark: listed apart in the source
Method in brief: (§3)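 Each 384-well plate was pre-loaded with compound dissolved in 5 µl medium, received breast cancer cells in 20 µl suspension, and was incubated 72 h. A 2.5 µl addition of CellTiter-Blue for 2 h at 37 °C was followed by a fluorescence read at 560/590 nm. Data were normalised per plate to vehicle and a positive kill control and checked by Z'-factor. EC50 was fitted from the percent-inhibition dose-response curve, censored at the highest concentration, excluding rows with a drug sensitivity score of zero.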

[5] = tested on: HCC1937
Method in brief: as §3

[6] = tested on: CAL-51; remark: listed apart in the source
Experimental: as §2

[7] = tested on: BT-549
Method in brief: as §1

[8] = tested on: HCC1599
Method in brief: as §1

[9] = tested on: MDA-MB-436
Method in brief: as §1

[10] = tested on: BT-549; remark: listed apart in the source
Method in brief: as §3

[11] = tested on: CAL-120; remark: listed apart in the source
Method in brief: as §3

[12] = tested on: Hs578T
Method in brief: as §3

[13] = tested on: MDA-MB-436; remark: listed apart in the source
Method in brief: as §3

[14] = tested on: MDA-MB-468; remark: listed apart in the source
Method in brief: as §3

[15] = tested on: MDA-MB-436; remark: listed apart in the source
Experimental: as §2

[16] = tested on: CAL-148
Method in brief: as §1

[17] = tested on: DU-4475
Method in brief: as §1

[18] = tested on: HCC1143
Method in brief: as §1

[19] = tested on: HCC1937; remark: listed apart in the source
Method in brief: as §1

[20] = tested on: Hs578T; remark: listed apart in the source
Method in brief: as §1

[21] = tested on: SK-BR-3
Method in brief: as §1

[22] = tested on: CAL-148; remark: listed apart in the source
Experimental: as §2

[23] = tested on: CAL-120; remark: listed apart in the source
Method in brief: as §1

[24] = tested on: CAL-85-1
Method in brief: as §1

[25] = tested on: MCF-10A
Method in brief: as §1

[26] = tested on: MDA-MB-231
Method in brief: as §1

[27] = tested on: MDA-MB-453
Method in brief: as §1

[28] = tested on: MFM-223
Method in brief: as §1

[29] = tested on: CAL-148; remark: listed apart in the source
Method in brief: as §3

[30] = tested on: CAL-85-1; remark: listed apart in the source
Method in brief: as §3

[31] = tested on: DU-4475; remark: listed apart in the source
Method in brief: as §3

[32] = tested on: HDQ-P1
Method in brief: as §3

[33] = tested on: MDA-MB-453; remark: listed apart in the source
Method in brief: as §3

[34] = tested on: BT-474
Method in brief: as §3

[35] = tested on: HCC1143; remark: listed apart in the source
Method in brief: as §3

[36] = tested on: MDA-MB-231; remark: listed apart in the source
Method in brief: as §3

[37] = tested on: MFM-223; remark: listed apart in the source
Method in brief: as §3

[38] = tested on: SK-BR-3; remark: listed apart in the source
Method in brief: as §3

[39] = tested on: BT-474; remark: listed apart in the source
Experimental: as §2

[40] = tested on: BT-549; remark: listed apart in the source
Experimental: as §2

[41] = tested on: CAL-85-1; remark: listed apart in the source
Experimental: as §2

[42] = tested on: HCC1143; remark: listed apart in the source
Experimental: as §2

[43] = tested on: HCC1937; remark: listed apart in the source
Experimental: as §2

[44] = tested on: HDQ-P1; remark: listed apart in the source
Experimental: as §2

[45] = tested on: Hs578T; remark: listed apart in the source
Experimental: as §2

[46] = tested on: MCF-10A; remark: listed apart in the source
Experimental: as §2

[47] = tested on: MDA-MB-231; remark: listed apart in the source
Experimental: as §2

[48] = tested on: MFM-223; remark: listed apart in the source
Experimental: as §2

Compound: CC1(C)CCC(CN2CCN(c3ccc(C(=O)NS(=O)(=O)c4ccc(NCC5CCOCC5)c([N+](=O)[O-])c4)c(Oc4cnc5[nH]ccc5c4)c3)CC2)=C(c2ccc(Cl)cc2)C1 [ABT-199]
EC50, CellTiter-Glo [1]: 702 nM | EC50, CellTox Green [2]: > 10000 nM | EC50, CellTox Green [3]: 3.5 nM

EC50, CellTiter-Blue viability [5]: 398 nM
Compound: O=C1CN2Cc3c(ccc(Cl)c3Cl)N=C2N1 [Anagrelide]
EC50, CellTiter-Glo [1]: > 10000 nM | EC50, CellTiter-Blue viability [4]: 77.5 nM | EC50, CellTox Green [6]: 30.6 nM

EC50, CellTiter-Glo [7]: 1280 nM | EC50, CellTiter-Glo [8]: 1290 nM | EC50, CellTiter-Glo [9]: 1120 nM | EC50, CellTiter-Blue viability [10]: 2570 nM | EC50, CellTiter-Blue viability [5]: > 10000 nM | EC50, CellTiter-Blue viability [13]: 1060 nM | EC50, CellTiter-Blue viability [14]: 650 nM
Compound: Nc1ncn([C@@H]2O[C@H](CO)[C@@H](O)[C@H]2O)c(=O)n1 [Azacitidine]
EC50, CellTiter-Blue viability [11]: > 10000 nM | EC50, CellTiter-Blue viability [12]: 6120 nM | EC50, CellTox Green [15]: > 10000 nM | EC50, CellTox Green [3]: 595 nM

EC50, CellTiter-Glo [7]: 852 nM | EC50, CellTiter-Glo [18]: 832 nM | EC50, CellTiter-Glo [8]: 3970 nM | EC50, CellTiter-Glo [19]: 696 nM | EC50, CellTiter-Glo [9]: 1570 nM | EC50, CellTiter-Glo [21]: 6450 nM
Compound: CC(=O)N(O)CCCCCNC(=O)CCC(=O)N(O)CCCCCNC(=O)CCC(=O)N(O)CCCCCN [Deferoxamine]
EC50, CellTiter-Glo [16]: 1920 nM | EC50, CellTiter-Glo [1]: 6360 nM | EC50, CellTiter-Glo [17]: 3480 nM | EC50, CellTiter-Glo [20]: 2660 nM | EC50, CellTox Green [22]: 221 nM | EC50, CellTox Green [6]: 1900 nM

EC50, CellTiter-Glo [7]: 1.03 nM | EC50, CellTiter-Glo [18]: 1.17 nM | EC50, CellTiter-Glo [8]: 12.2 nM | EC50, CellTiter-Glo [19]: 0.69 nM | EC50, CellTiter-Glo [26]: 5.5 nM | EC50, CellTiter-Glo [9]: 2.14 nM | EC50, CellTiter-Glo [27]: 7.15 nM | EC50, CellTiter-Glo [21]: 1.37 nM | EC50, CellTiter-Blue viability [33]: 2.02 nM | EC50, CellTiter-Blue viability [34]: 6.71 nM | EC50, CellTiter-Blue viability [10]: 1.03 nM | EC50, CellTiter-Blue viability [35]: 1.71 nM | EC50, CellTiter-Blue viability [5]: 1.02 nM | EC50, CellTiter-Blue viability [36]: 2.39 nM | EC50, CellTiter-Blue viability [13]: 2.53 nM | EC50, CellTiter-Blue viability [14]: 0.808 nM | EC50, CellTiter-Blue viability [38]: 1.9 nM
Compound: CC(=O)O[C@@]12CO[C@@H]1C[C@H](O)[C@@]1(C)C(=O)[C@H](O)C3=C(C)[C@@H](OC(=O)[C@H](O)[C@@H](NC(=O)OC(C)(C)C)c4ccccc4)C[C@@](O)([C@@H](OC(=O)c4ccccc4)[C@H]21)C3(C)C [Docetaxel]
EC50, CellTiter-Glo [23]: 3.3 nM | EC50, CellTiter-Glo [16]: 1.52 nM | EC50, CellTiter-Glo [1]: 5.86 nM | EC50, CellTiter-Glo [24]: 1.46 nM | EC50, CellTiter-Glo [17]: 8.31 nM | EC50, CellTiter-Glo [20]: 2.47 nM | EC50, CellTiter-Glo [25]: 1.04 nM | EC50, CellTiter-Glo [28]: 3.29 nM | EC50, CellTiter-Blue viability [29]: 1.85 nM | EC50, CellTiter-Blue viability [4]: 4.62 nM | EC50, CellTiter-Blue viability [30]: 2.27 nM | EC50, CellTiter-Blue viability [31]: 2.52 nM | EC50, CellTiter-Blue viability [32]: 1.39 nM | EC50, CellTiter-Blue viability [11]: 2.27 nM | EC50, CellTiter-Blue viability [12]: 1.36 nM | EC50, CellTiter-Blue viability [37]: 2.57 nM | EC50, CellTox Green [39]: 5.12 nM | EC50, CellTox Green [40]: 57.8 nM | EC50, CellTox Green [6]: 1.63 nM | EC50, CellTox Green [41]: 1.87 nM | EC50, CellTox Green [42]: 108 nM | EC50, CellTox Green [43]: 946 nM | EC50, CellTox Green [44]: 123 nM | EC50, CellTox Green [45]: 4.24 nM | EC50, CellTox Green [46]: 3.14 nM | EC50, CellTox Green [47]: 1.94 nM | EC50, CellTox Green [48]: 12.2 nM
